Measurements from patent US11912788B2, “Probiotic molecules for reducing pathogen virulence” (priority 2017, dated 2024).

How the values were obtained:
[1] = system: Staphylococcus aureus (strain alias LA-414M SPA t034); assay: Cefoxitin MIC testing with and without cell-free supernatant; assay type: cell-based; conditions: MRSA LA 414M, 0 mg/mL dried cell-free (cefoxitin only)
Excerpt: (§1) Three methicillin resistant Staphylococci (MRS) strains were used in these experiments: 1) Staphylococcus pseudintermedius (strain alias C260 22-2011 dtqa), a clinical isolate from a dog skin infection; 2) Staphylococcus aureus (strain alias LA-414M SPA t034), a livestock-associated strain isolated from beef purchased from a grocery store in Charlottetown, PEI, Canada; and 3) Staphylococcus aureus (strain alias 81M SPA t008), isolated from poultry meat purchased from a grocery store in Charlottetown, PEI, Canada. All three MRS strains were provided by the Atlantic Veterinary College (AVC) at the University of Prince Edward Island. The methicillin-resistance of these strains was confirmed by AVC staff using an oxacillin disk diffusion method. The strains were originally cultured on sheep blood agar slants, and then transferred to lysogeny broth agar plates. Cefoxitin resuspended in methanol was used for antibiotic resistance testing, and growth was tested in two different media types, standard Lysogeny Broth and standard BBL™ Cation-Adjusted Mueller-Hinton Medium (Becton, Dickinson and Company). The minimum inhibitory concentrations (MICs) of the cefoxitin was determined for each strain in each respective medium in the presence and absence of the cell-free supernatant. Assays were performed according to the Clinical and Laboratory Standards Institute (CLSI) guidelines for MIC testing of Staphylococcal species [CLSI, 2015] as well as the European Committee for Antimicrobial Susceptibility Testing (EUCAST) of the European Society of Clinical Microbiology and Infectious Diseases [EUCAST, 2003].
(§2) The protocol for MIC testing was as follows. The cell-free supernatants were resuspended in the respective media and filter sterilized through a […] pore size filter. The required concentration of dried cell free supernatant was weighed and added at concentrations ranging from 0-60 mg/mL. Cefoxitin was added to obtain final concentrations ranging from 0-250 μg/mL. […] Following incubation, microplates were read at 600 nm using a microplate reader. […]

[2] = system: Staphylococcus pseudintermedius (strain alias C260 22-2011 dtqa); assay: as above; assay type: cell-based; conditions: MSRP C260; Lysogeny Broth; 0 mg/mL dried cell-free (cefoxitin only)
Excerpt: as §1, §2

[3] = system: Staphylococcus aureus (strain alias 81M SPA t008); assay: Cefoxitin MIC testing with and without cell-free supernatant or its size exclusion fractions; assay type: cell-based
Excerpt: as §1, §2

HilA = assay: qPCR of HilA down-regulation in Salmonella, reference gene 16S; assay type: cell-based, Salmonella enteric typhimurium DT104; conditions: individual synthetic biopeptides, 50 μg per assay
Excerpt: The cell-free supernatant was separated using Sephadex G75 resin. The samples were separated and collected into fractions: Fraction 1 (>163000 Da), Fraction 2 (163000-14500 Da), Fraction 3(14500-1300 Da), Fraction 4 (1300-110 Da), Fraction 5 (110-10 Da). The samples were collected and assayed by qPCR using Salmonella enteric typhimurium DT104 strain. The down-regulation of HilA was compared to the reference gene 16S.
The active fraction from G75 size exclusion chromatography was further separated using reverse phase chromatography. The fractions from the reverse phase: Fraction 1 (0-2 min), Fraction 2 (2-4 min), Fraction 3 (4-16 min), Fraction 4 (16-32 min), Fraction 5 (32-40 min), Fraction 6 (40-58 min). The fractions were dried and neutralized to remove acetonitrile and trifluoroacetic acid from the solvent. The dried fractions were assayed using the same qPCR assay conditions as above. The fractions were analyzed by de novo sequencing at the University of Guelph Advance Analytical center. The peptides from the active fractions of 6 batches were compared and common peptides from batches were deduced.

HylA = conditions: individual synthetic biopeptides, 50 μg per assay; reference gene GapA
Method: The La-5 cell-free supernatant used for these experiments was batch D4. […] Strain 1 alias UPEC99 and strain 2 alias UPEC804. The strains were cultured on LB agar. Two different media were tested LB and artificial urine medium.
The UPEC were grown for 4 hours in the presence of cell-free supernatant. The cells were harvested and the RNA was extracted. The RNA was treated with DNAse I to remove genomic DNA. The RNA was used as a template to make cDNA. The cDNA was assayed by qPCR and the gene expression was normalized to a reference gene and compared to a without cell-free media control.
The synthetic bio-peptides were analyzed at 50 μg per assay.

| Molecule | Fold down-regulation HilA (HilA) [Fold] | Fold down-regulation HylA (HylA) [Fold] | also measured |
| --- | --- | --- | --- |
| CO[C@@]1(NC(=O)Cc2cccs2)C(=O)N2C(C(=O)O)=C(COC(N)=O)CS[C@@H]21 [Cefoxitin] | – | – | Range of Cefoxitin concentration to inhibition growth to O.D. < 0.1 (cefoxitin MIC) ([1]; Lysogeny Broth): 30 to 40 µg/mL; Range of Cefoxitin concentration to inhibition growth to O.D. < 0.1 (cefoxitin MIC) ([1]; Mueller-Hinton Broth): 50 to 60 µg/mL; Range of Cefoxitin concentration to inhibition growth to O.D. < 0.1 (cefoxitin MIC) [2]: 125 to 175 µg/mL; Range of Cefoxitin concentration to inhibition growth to O.D. < 0.1 (cefoxitin MIC) ([3]; MRSA 81M, Lysogeny Broth, 0 mg/mL dried cell-free (cefoxitin only)): 75 to 125 µg/mL; Range of Cefoxitin concentration to inhibition growth to O.D. < 0.1 (cefoxitin MIC) ([3]; MRSA 81M, Mueller-Hinton Broth, 0 mg/mL dried cell-free (cefoxitin only)): 75 to 100 µg/mL; Range of Cefoxitin concentration to inhibition growth to O.D. < 0.1 (cefoxitin MIC) ([3]; Table 4, Staphylococcus aureus 81M, Untreated (0 mg/mL), cefoxitin only): 60 to 75 µg/mL |
| CVLPPK | 3.75 | 3.20 | – |
| HLLPLP | 2.93 | 2.64 | – |
| LKPTPEGD | 11.08 | 4.69 | – |
| MALPPK | 19.56 | 9.06 | – |
| YPPGGP | 2.93 | 3.56 | – |
| YPVEPF | 0.68 | 1.03 | – |
